Converted amounts (≈) assume the structure as drawn. The source made the active and inactive calls. The rule behind the calls is not given here. Where a SMILES comes first, the peptide text is derived from it. Bridges are numbered along the chain shown (N, C = ends). [ ]: non-standard residue; d: D form. The star is where a group is joined. X1 = CC[C@H](C)CCCCC(=O)*; Dab = NCC[C@H](N)C(=O)O
Assays:
[1] = system: Fungi; assay: Antibacterial activity against fungi incubated for 18 hrs by CLSI based broth dilution method; type: functional
[2] = Cytotoxicity against human glomerular mesangial cells incubated for 12 hrs by MTT assay; type: cell-based; settings: Glomerular mesangial cell
[3] = Selectivity ratio of MHC10 for BALB/C mouse erythrocytes to MIC for gram-negative bacteria; type: toxicity
[4] = system: Enterococcus faecalis; assay: Antibacterial activity against Enterococcus faecalis ATCC 29212 incubated for 18 hrs by CLSI based broth dilution method; type: functional
[5] = Toxicity in ip dosed BALB/C mouse measured within 14 days by Karber-method; type: organism-based; settings: in vivo, time 14 day
[6] = system: Staphylococcus aureus; assay: Antibacterial activity against Staphylococcus aureus ATCC 25923 incubated for 18 hrs by CLSI based broth dilution method; type: functional
[7] = system: Klebsiella pneumoniae; assay: Antibacterial activity against Klebsiella pneumoniae ATCC 700603 infected in BALB/C mouse assessed as reduction in bacterial load in lung at 5 mg/kg, ip measured within 24 hrs by agar plate counting method (reference value: 2.77 x 10^7 CFU/mg); type: functional
[8] = system: Staphylococcus aureus; assay: Antibacterial activity against Staphylococcus aureus ATCC 25923 incubated with 2000 ug/ml trypsin for 6 hrs followed by bacterial addition and measured after 18 hrs by CLSI based broth dilution method; type: functional, organism-based; settings: dose 2000.0 µg/ml, time 23.0 hrs
[9] = system: Klebsiella pneumoniae; assay: Bactericidal activity against Klebsiella pneumoniae 700603 at 2MIC by time-kill assay relative to control; type: functional
[10] = system: Klebsiella pneumoniae; assay: Synergistic antibacterial activity against Klebsiella pneumoniae ATCC 700603 at 2 times MIC incubated for 18 to 24 hrs in presence of 2 times MIC of rifampicin by broth microdilution assay based checkerboard assay; type: functional; settings: time 18-24 hrs
[11] = system: Lipopolysaccharide (LPS); assay: Binding affinity to LPS (unknown origin) assessed as bacterial killing at 2 times MIC preincubated for 1 hr followed by Escherichia coli ATCC 25922 addition and measured after 2 hrs by absorbance method; settings: time 3.0 hrs
[12] = system: Acinetobacter baumannii; assay: Antibacterial activity against Acinetobacter baumannii ATCC 19606 incubated for 18 hrs by CLSI based broth dilution method; type: functional; settings: ATCC 19606 = CIP 70.34 = JCM 6841
[13] = system: Staphylococcus aureus; assay: Disruption of membrane integrity in Staphylococcus aureus ATCC 25923 assessed as membrane blebbing at 1 times MIC measured within 0.5 hrs by scanning electron microscopy; type: functional, organism-based
[14] = system: Staphylococcus aureus; assay: Disruption of bacterial cell membrane in Staphylococcus aureus ATCC 25923 assessed as increase in PI uptake incubated for 30 to 120 mins by FACS flow cytometry; type: functional, organism-based; settings: time 30-120 min
[15] = Selectivity ratio of MHC10 for BALB/C mouse erythrocytes to MIC for bacteria; type: toxicity
[16] = system: Pseudomonas aeruginosa; assay: Antibacterial activity against Pseudomonas aeruginosa ATCC 27853 incubated for 18 hrs by CLSI based broth dilution method; type: functional
[17] = system: Bacteria; assay: Antibacterial activity against bacteria incubated for 18 hrs by CLSI based broth dilution method; type: functional
[18] = system: Staphylococcus aureus; assay: Bactericidal activity against Staphylococcus aureus ATCC 25923 at 2MIC by time-kill assay; type: functional, organism-based; settings: time 24.0 hrs, TDE = time-dependent effect
[19] = system: Erythrocyte; assay: Hemolytic activity in BALB/C mouse erythrocytes incubated for 1 hr by absorbance method; type: ADME, cell-based
[20] = system: Bacteria; assay: Antibacterial activity against Gram-positive bacteria incubated for 18 hrs by CLSI based broth dilution method; type: functional
[21] = system: Cell membrane; assay: Disruption of membrane integrity in Staphylococcus aureus ATCC 25923 assessed as membrane shrinking at 1 times MIC measured within 0.5 hrs by scanning electron microscopy; type: subcellular
[22] = system: Klebsiella pneumoniae; assay: Synergistic antibacterial activity against Klebsiella pneumoniae ATCC 700603 at 2 times MIC incubated for 18 to 24 hrs in presence of 2 times MIC of gentamycin by broth microdilution assay based checkerboard assay; type: functional; settings: time 18-24 hrs
[23] = system: Escherichia coli; assay: Antibacterial activity against Escherichia coli ATCC 25922 incubated for 18 hrs by CLSI based broth dilution method; type: functional
[24] = system: Bacteria; assay: Antibacterial activity against Gram-negative bacteria incubated for 18 hrs by CLSI based broth dilution method; type: functional
[25] = Selectivity ratio of MHC10 for BALB/C mouse erythrocytes to MIC for gram positive bacteria; type: toxicity
[26] = system: Cell membrane; assay: Disruption of membrane integrity in Staphylococcus aureus ATCC 25923 assessed as bacterial death at 1 times MIC measured within 0.5 hrs by scanning electron microscopy; type: subcellular
[27] = system: Cell membrane; assay: Disruption of membrane integrity in Klebsiella pneumoniae ATCC 700603 assessed as bacterial death at 1 times MIC incubated for 0.5 to 2 hrs by scanning electron microscopy; type: subcellular; settings: Klebsiella pneumoniae 700603, time 0.5-2 hrs
[28] = system: Bacillus subtilis; assay: Antibacterial activity against Bacillus subtilis ATCC 23857 incubated for 18 hrs by CLSI based broth dilution method; type: functional
[29] = system: Staphylococcus aureus; assay: Antibacterial activity against Staphylococcus aureus ATCC 25923 at 0.5 to 1 times MIC incubated for 24 hrs by crystal violet staining based assay; type: functional, organism-based
[30] = system: Pseudomonas aeruginosa; assay: Antibacterial activity against gentamicin-resistant Pseudomonas aeruginosa ATCC 27853 incubated for 18 hrs by CLSI based broth dilution method; type: functional
[31] = system: Staphylococcus epidermidis; assay: Antibacterial activity against Staphylococcus epidermidis ATCC 12228 incubated for 18 hrs by CLSI based broth dilution method; type: functional
[32] = system: Pseudomonas aeruginosa; assay: Synergistic antibacterial activity against Pseudomonas aeruginosa ATCC 27853 at 2 times MIC incubated for 18 to 24 hrs in presence of 2 times MIC of rifampicin by broth microdilution assay based checkerboard assay; type: functional; settings: time 18-24 hrs
[33] = system: Pseudomonas aeruginosa; assay: Antibacterial activity against rifampin-resistant Pseudomonas aeruginosa ATCC 27853 incubated for 18 hrs by CLSI based broth dilution method; type: functional
[34] = system: Escherichia coli; assay: Synergistic antibacterial activity against Escherichia coli ATCC 25922 at 2 times MIC incubated for 18 to 24 hrs in presence of 2 times MIC of rifampicin by broth microdilution assay based checkerboard assay; type: functional; settings: time 18-24 hrs
[35] = Toxicity in BALB/C mouse assessed as mouse death at 15 to 25 mg/kg, ip measured within 2 days; type: organism-based; settings: in vivo, 48 h, dose 15-25 mg/kg, time 2 day
[36] = Selectivity ratio of MHC10 for BALB/C mouse erythrocytes to MIC for fungi; type: toxicity
[37] = system: Klebsiella pneumoniae; assay: Antibacterial activity against Klebsiella pneumoniae ATCC 700603 incubated for 18 hrs by CLSI based broth dilution method; type: functional
[38] = system: Cell membrane; assay: Induction of inner membrane permeabilization in Klebsiella pneumoniae ATCC 700603 at 0.5 to 4MIC using ONPG as substrate by spectroscopic method; type: subcellular; settings: Klebsiella pneumoniae 700603, 0.5 to 4M
[39] = system: Escherichia coli; assay: Synergistic antibacterial activity against Escherichia coli ATCC 25922 at 2 times MIC incubated for 18 to 24 hrs in presence of 2 times MIC of gentamycin by broth microdilution assay based checkerboard assay; type: functional; settings: time 18-24 hrs
[40] = system: Cell membrane; assay: Induction of outer membrane permeabilization in Klebsiella pneumoniae ATCC 700603 at 2 to 4 MIC by N-phenylnaphthylamine dye based fluorescent method; type: subcellular; settings: Klebsiella pneumoniae 700603, 2 to 4 M
[41] = Toxicity in BALB/C mouse assessed as effect on kidney at 19 mg/kg, ip administered as single dose by hematoxylin and eosin staining based assay; type: organism-based; settings: in vivo
[42] = 2M, TDE = time-dependent effect

CC[C@H](C)CCCCC(=O)N[C@@H](CCN)C(=O)N[C@H](C(=O)N[C@@H](CCN)C(=O)N[C@H]1CCNC(=O)[C@H]([C@@H](C)O)NC(=O)[C@H](CCN)NC(=O)[C@H](CCN)NC(=O)[C@H](CC(C)C)NC(=O)[C@@H](Cc2ccccc2)NC(=O)[C@H](CCN)NC1=O)[C@@H](C)O (X1-[Dab]T[Dab][Dab][Dab][dF]L[Dab][Dab]T; lactam 4-C)
MIC [1]: 12.3 µM (≈ 14.9 µg/mL) | IC50 [2]: ≥ 512 µM | selectivity ratio [3]: 90.5 | MIC [4]: 128 µM (≈ 154 µg/mL) | LD50 at 336 h [5]: 16.4 mg/kg | MIC [6]: 16 µM (≈ 19.3 µg/mL) | Activity [7]: 3.21 10^4CFU/ml | Activity [8]: Active | Activity [9, 42]: Tde | FIC [10]: 0.3125 | Activity [11]: Dose-Dependent Effect | MIC [12]: 32 µM (≈ 38.5 µg/mL) | Activity [13]: inactive | Activity [14]: inactive | selectivity ratio [15]: 4150 | MIC [16]: 4 µM (≈ 4.81 µg/mL) | MIC [17]: 12.3 µM (≈ 14.9 µg/mL) | Activity [18]: Tde | MHC10 [19]: >= 512 uM | MIC [20]: 26.9 µM (≈ 32.4 µg/mL) | Activity [21]: inactive | FIC [22]: 0.5 | MIC [23]: 4 µM (≈ 4.81 µg/mL) | MIC [24]: 5.66 µM (≈ 6.81 µg/mL) | selectivity ratio at 18 h [25]: 19 | Activity [26]: inactive | Activity [27]: Active | MIC [28]: 8 µM (≈ 9.63 µg/mL) | Activity [29]: Active | MIC [30]: 2 µM (≈ 2.41 µg/mL) | MIC [31]: 32 µM (≈ 38.5 µg/mL) | FIC [32]: 0.3125 | MIC [33]: 2 µM (≈ 2.41 µg/mL) | FIC [34]: 0.125 | Activity [35]: Toxic | selectivity ratio [36]: 4150 | MIC [37]: 4 µM (≈ 4.81 µg/mL) | Activity [38]: inactive

NCCCC[C@H](NC(=O)[C@H](CCCCN)NC(=O)[C@H](Cc1c[nH]c2ccccc12)NC(=O)[C@H](CCCCN)NC(=O)[C@H](CCCCN)NC(=O)[C@H](Cc1c[nH]c2ccccc12)NC(=O)[C@H](Cc1c[nH]c2ccccc12)NC(=O)[C@@H](N)CCCCN)C(=O)N[C@@H](Cc1c[nH]c2ccccc12)C(=O)N[C@@H](Cc1c[nH]c2ccccc12)C(N)=O (H-KWWKKWKKWW-NH2)
MIC [1]: 4.76 µM (≈ 7.56 µg/mL) | IC50 [2]: 40.2 µM | selectivity ratio [3]: 28.2 | FIC [39]: 0.5625 | MIC [4]: 8 µM (≈ 12.7 µg/mL) | LD50 at 336 h [5]: 66.5 mg/kg | MIC [6]: 4 µM (≈ 6.36 µg/mL) | Activity [7]: 4.12 10^4CFU/mg | Activity [9]: 100% | Activity [9, 42]: Tde | FIC [10]: 0.3125 | Activity [11]: Dose-Dependent Effect | MIC [12]: 8 µM (≈ 12.7 µg/mL) | Activity [13]: Active | Activity [14]: Active | selectivity ratio [15]: 28.2 | MIC [16]: 4 µM (≈ 6.36 µg/mL) | MIC [17]: 4.76 µM (≈ 7.56 µg/mL) | Activity [18]: Tde | MHC10 [19]: 134.38 µM | MIC [20]: 4.76 µM (≈ 7.56 µg/mL) | Activity [21]: Active | FIC [22]: 0.5625 | MIC [23]: 4 µM (≈ 6.36 µg/mL) | Activity [40]: Active | MIC [24]: 4.76 µM (≈ 7.56 µg/mL) | selectivity ratio at 18 h [25]: 28.2 | Activity [26]: Active | Activity [41]: Toxic | Activity [27]: Active | MIC [28]: 4 µM (≈ 6.36 µg/mL) | Activity [29]: Active | MIC [30]: 2 µM (≈ 3.18 µg/mL) | MIC [31]: 4 µM (≈ 6.36 µg/mL) | FIC [32]: 0.5625 | MIC [33]: 2 µM (≈ 3.18 µg/mL) | FIC [34]: 0.75 | Activity [35]: Toxic | selectivity ratio [36]: 28.2 | MIC [37]: 8 µM (≈ 12.7 µg/mL) | Activity [38]: inactive

Reference: ChEMBL document CHEMBL4823282, “Novel Broad-Spectrum Antimicrobial Peptide Derived from Anoplin and Its Activity on Bacterial Pneumonia in Mice” (J Med Chem, 2021)
